Experimental data from US8993282B2, “Carotenoid fermentation method” (JX Nippon Oil & Energy Corporation, priority 2008, dated 2015).

Tested on: Paracoccus carotinifaciens strain E-396 (FERM BP-4283)
Test: Amino acid supplementation (20 amino acids), test tube culture, carotenoid by HPLC and growth by OD610
Assay type: cell-based
Conditions: amino acid at 1.0 g/L; for Astaxanthin / Total carotenoid: culture solution; for Astaxanthin / Total carotenoid / OD610: 28° C. for 4 days; for OD610: microbial cell growth, absorbance at 610 nm; for effect on the production of carotenoid pigments: versus tube with no amino acid
Description: In the examples, carotenoids were quantified by high performance liquid chromatography (HPLC) as follows.
Two columns of Wakosil-II 5 SIL-100 (φ4.6×250 mm) (Wako Pure Chemical Industries, Ltd., Japan) were connected to each other for use as a column. Elution was performed by flowing an n-hexane-tetrahydrofuran-methanol mixed solution (40:20:1), which was a mobile phase, at a flow rate of 1.0 mL/minute at a constant temperature around room temperature. The measurement was performed as follows. Samples were each dissolved in tetrahydrofuran and then diluted 100-fold with the mobile phase. Each dilution was injected in a volume of 20 μL. The column eluate was detected at a wavelength of 470 nm. As a reference for quantification, astaxanthin (SIGMA, Cat. No. A9335) was used. The astaxanthin concentration of the reference solution was determined using the following equation after measuring the absorbance (A) of the reference solution at 477 nm and the area percentage % (B) of the astaxanthin peak at the time of HPLC analysis under the above conditions. Astaxanthin concentration (mg/L)=A/2150×B×100
A medium of the following composition (sucrose 30 g/L, corn steep liquor 30 g/L, potassium dihydrogenphosphate 1.5 g/L, disodium hydrogenphosphate 12-hydrate 3.8 g/L, calcium chloride dihydrate 5.0 g/L, magnesium sulfate 7-hydrate 0.7 g/L, iron sulfate 7-hydrate 0.3 g/L, pH 7.2) was dispensed in 8 ml volumes into cotton-plugged test tubes having an inner diameter of 18 mm and sterilized in an autoclave at 121° C. for 15 minutes to prepare a test tube medium for seed culture.
Next, a medium of the following composition (glucose 30 g/L, filtered corn steep liquor 5 g/L, ammonium sulfate 1.5 g/L, potassium dihydrogenphosphate 1.5 g/L, disodium hydrogenphosphate 12-hydrate 3.8 g/L, calcium chloride dihydrate 5.0 g/L, magnesium sulfate 7-hydrate 0.7 g/L, iron sulfate 7-hydrate 0.6 g/L, ester-based defoaming agent 0.2 g/L) was dispensed in 8 ml volumes into cotton-plugged test tubes having an inner diameter of 18 mm (21 tubes in total).
The mediums in these test tubes were supplemented with 20 amino acids, glycine, alanine, valine, leucine, isoleucine, serine, threonine, aspartic acid, glutamic acid, asparagine, glutamine, lysine, arginine, cysteine, methionine, phenylalanine, tyrosine, tryptophan, histidine and proline, respectively, at 1.0 g/L. One of the tubes was supplemented with no amino acid as a control. Finally, the mediums in the tubes were adjusted to pH 7.1 with aqueous sodium hydroxide or aqueous sulfuric acid and then sterilized in an autoclave at 121° C. for 20 minutes.
Paracoccus carotinifaciens strain E-396 (FERM BP-4283) was inoculated into the test tube medium for seed culture and then cultured with shaking at 28° C. for 2 days at 300 spm. The resulting culture solution was then inoculated in 0.1 ml volumes into the 21 test tube media, respectively, and cultured with shaking at 28° C. for 4 days at 300 spm.
Each culture solution was measured for its carotenoid concentration by HPLC and microbial cell growth was determined by OD610 (absorbance at 610 nm).

Structure (SMILES) | Astaxanthin [mg/L] | Total carotenoid [mg/L] | OD610 | effect on the production of carotenoid pigments
N[C@@H](Cc1c[nH]c2ccccc12)C(=O)O [Tryptophan, tryptophan] | 3.0 | 7.0 | 10 | 
CC(C)[C@H](N)C(=O)O [Valine, valine] | 3.0 | 9.2 | 10 | 
NCCCC[C@H](N)C(=O)O [Lysine, lysine] | 1.1 | 4.9 | 11 | clear inhibitory effect
C[C@@H](O)[C@H](N)C(=O)O [Threonine, threonine] | 5.2 | 12.5 | 8 | stimulatory effect
CC(C)C[C@H](N)C(=O)O [Leucine, leucine] | 4.7 | 10.1 | 11 | stimulatory effect
CSCC[C@H](N)C(=O)O [Methionine, methionine] | 1.4 | 5.0 | 7 | clear inhibitory effect
N=C(N)NCCC[C@H](N)C(=O)O [Arginine, arginine] | 5.1 | 11.7 | 13 | stimulatory effect
N[C@@H](Cc1ccc(O)cc1)C(=O)O [Tyrosine, tyrosine] | 5.0 | 11.3 | 12 | stimulatory effect
NC(=O)CC[C@H](N)C(=O)O [Glutamine, glutamine] | 8.3 | 25.8 | 17 | stimulatory effect
N[C@@H](CC(=O)O)C(=O)O [Aspartic Acid, aspartic acid] | 9.4 | 27.0 | 18 | stimulatory effect
C[C@H](N)C(=O)O [Alanine, alanine] | 6.2 | 20.3 | 13 | stimulatory effect
CC[C@H](C)[C@H](N)C(=O)O [Isoleucine, isoleucine] | 1.3 | 4.5 | 6 | clear inhibitory effect
N[C@@H](CO)C(=O)O [Serine, serine] | 6.0 | 16.4 | 13 | stimulatory effect
N[C@@H](Cc1ccccc1)C(=O)O [Phenylalanine, phenylalanine] | 4.9 | 10.6 | 10 | stimulatory effect
NC(=O)C[C@H](N)C(=O)O [Asparagine, asparagine] | 8.1 | 24.2 | 14 | stimulatory effect
N[C@@H](CS)C(=O)O [Cysteine, cysteine] | 0.7 | 3.2 | 4 | clear inhibitory effect
N[C@@H](Cc1c[nH]cn1)C(=O)O [Histidine, histidine] | 3.3 | 8.1 | 8 | 
O=C(O)[C@@H]1CCCN1 [Proline, proline] | 5.0 | 10.9 | 13 | stimulatory effect
NCC(=O)O [Glycine, glycine] | 6.2 | 19.0 | 18 | stimulatory effect
